According to patent publication US20230312646A1, “ANTIBACTERIAL PEPTIDES” (priority 2020, published 2023):
Read-outs that look alike come from different tables or passages of the source. Numbered stars: 1 amine (or outer) side, 2 acyl side, 3 side chain; on linkers, the order of the positions; unused ones are H or OH. Square brackets hold non-standard residues; d marks the D form. Peptide text beside a SMILES is read from it. * marks the point of attachment. NEtAsp = CCN([C@@H](CC(=O)[*:3])C(=O)[*:2])[*:1]; ACHC(1S,2S) = O=C([C@H]1CCCC[C@@H]1N[*:1])[*:2]; Acryloyl(3-(3-pyridyl),E) = O=C(/C=C/c1cccnc1)*; Oic = O=C(O)[C@@H]1C[C@@H]2CCCC[C@@H]2N1; X5 = O=C([C@@H]1CC(O)CN1[*:1])[*:2]; NMeCha = CN[C@@H](CC1CCCCC1)C(=O)O; Hydrocinnamoyl = O=C(CCc1ccccc1)*; NMeF = CN[C@@H](Cc1ccccc1)C(=O)O; X4 = O=C([O-])[C@H](Cc1ccccc1)N*; NMeQ = CN[C@@H](CCC(N)=O)C(=O)O; Cha = N[C@@H](CC1CCCCC1)C(=O)O; NMeD = CN[C@@H](CC(=O)O)C(=O)O; X1 = O=C(/C=C/c1ccc2ccccc2c1)*; X3 = CN(C)C(NCC(=O)*)=[N+](C)C; NMeL = CN[C@@H](CC(C)C)C(=O)O; Pip = O=C(O)[C@@H]1CCCCN1; X8 = NC[C@H](Cc1ccccc1)N*; X6 = O=C(/C=C/c1ccccc1)*; Sar = CNCC(=O)O

Molecular target: T1, Escherichia coli SC (^EcSC) (Escherichia coli, UniProt P0A988)
T1 construct: His tag (inferred from the pET15b vector and Ni-NTA purification) (N); made in house; host or cells: E. coli
Test: biochemical
Type: binding
Settings: for ΔG (kcal/mol) / Kd: ITC at 298.15 K (25° C.); for Kd: Kd (nM); for ΔG (kcal mol^-1): ITC at 25° C.
Description: The procedure has been described previously (Wolff, P.; Oliéric, V.; Briand, J. P.; Chaloin, O.; Dejaegere, A.; Dumas, P.; Ennifar, E.; Guichard, G.; Wagner, J.; Burnouf, D. Y., Structure-Based Design of Short Peptide Ligands Binding onto the E. coli Processivity Ring. J. Med. Chem. 2011, 54 (13), 4627-4637). Briefly, E.coli cells were transformed with plasmids pET15b containing the dnaN gene from E. coli and were grown in LB at 37° C. to OD 0.5, then induced by IPTG (0.1 mM) at 28° C. overnight. dnaN proteins fractions were first enriched on a Ni-NTA column, eluted with a histidine step (300 mM) and further purified on a Source Q column in buffer containing 20 mM Tris HCI pH 7.5, 0.5 mM EDTA and 10% (v/v) glycerol, using a gradient from 0 to 0.5 M NaCl. After a final ultracentrifugation (45 K, 1 h, 20° C.), soluble proteins were concentrated on a Centricon 30 K (Millipore) in the same buffer and stored at 4° C. in 2 M ammonium sulfate. Buffer exchange was performed on Centrikon 10 K at 4° C. before use and protein quality was assessed by DLS.
ITC experiments were performed using an iTC200 or a PEAQ-ITC instrument (Microcal Malvern Panalytical). Peptides (300 or 600 µM) were titrated at 25° C. by sequential injections (usually 2 µl each) into an SC solution (30 or 60 µM). Data were corrected for heat of injection by subtracting the signal of the titration of peptides into proteiN-free buffer solution (Hepes 10 mM pH 7.4, NaCl 0.15 M, EDTA 3 mM). Each titration was performed at least twice. Analyses of experimental data were performed following a classical treatment with the AFFINImeter software (https://www.affinimeter.com; S4S, Santiago de Compostela, Spain). In addition, kinetic information was obtained in some cases with kinITC as implemented in the software AFFINImeter.
All newly synthesized peptides were tested for their interaction with ^EcSC by ITC at 25° C. As a general rule, all thermodynamic profiles reveal an exothermic interaction, and a non-favorable entropic component. The resulting negative Gibb’s free energies characterize a spontaneous interaction. The analysis of raw data by the Affinimeter® software also gave access to kinetics rate constant of the interaction.

T1 sequence (P0A988 whole entry): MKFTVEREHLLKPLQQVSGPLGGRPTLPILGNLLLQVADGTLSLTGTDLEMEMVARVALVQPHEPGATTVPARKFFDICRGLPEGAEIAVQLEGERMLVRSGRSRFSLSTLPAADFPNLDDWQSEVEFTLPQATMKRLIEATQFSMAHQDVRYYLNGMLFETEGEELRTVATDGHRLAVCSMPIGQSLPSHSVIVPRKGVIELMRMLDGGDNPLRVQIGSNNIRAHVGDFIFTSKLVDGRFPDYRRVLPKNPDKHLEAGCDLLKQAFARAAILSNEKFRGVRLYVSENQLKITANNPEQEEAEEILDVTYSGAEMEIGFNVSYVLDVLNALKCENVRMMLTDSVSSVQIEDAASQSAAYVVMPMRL

SMILES	ΔG (kcal/mol)	Kd	kon (read-out: kon (M^-1.s^-1))	fold lower Kd / affinity enhancement in comparison to peptide P27 (compared to P27)	ΔG (kcal mol^-1)	kon (read-out: kon (M^-1 s^-1))	koff, fold higher than for peptide 1 (P1) (compared to P1)	kon value, fold higher than for peptide 1 (P1) (compared to P1)
CC(=O)N[C@@H](CCC(N)=O)C(=O)N[C@@H](CC1CCCCC1)C(=O)N[C@@H](CC(=O)O)C(=O)N[C@@H](CC(C)C)C(=O)N1CC(O)C[C@H]1C(=O)N[C@@H](CC(C)C)C(=O)O (stereo partly drawn) [P33] (Ac-Q[Cha]DL[X5]L-OH)	-8.8 (± 0.2) kcal/mol	369 nM	44000 M⁻¹ s⁻¹					
CC(=O)N[C@@H](CCC(N)=O)C(=O)N[C@@H](CC1CCCCC1)C(=O)N[C@@H](CC(=O)O)C(=O)N[C@@H](CC(C)C)C(=O)N[C@H](CN)Cc1ccccc1 [P25] (Ac-Q[Cha]DL-X8)	-8.27 (± 0.03) kcal/mol	877 nM	12000 M⁻¹ s⁻¹					
CC(=O)N[C@@H](CCC(N)=O)C(=O)N[C@@H](CC1CCCCC1)C(=O)N[C@@H](CC(=O)O)C(=O)N[C@@H](CC(C)C)C(=O)N(C)[C@@H](Cc1ccccc1)C(=O)O [P7] (Ac-Q[Cha]DL[NMeF]-OH)	-7.1 (± 0.1) kcal/mol	> 1000 nM	10000 M⁻¹ s⁻¹					
CC(=O)N[C@@H](CCC(N)=O)C(=O)N[C@@H](CC1CCCCC1)C(=O)N[C@@H](CC(=O)O)C(=O)N[C@@H](CC(C)C)C(=O)N1CCCC[C@H]1C(=O)N[C@@H](CC(C)C)C(=O)O [P34] (Ac-Q[Cha]DL[Pip]L-OH)	-9.0 (± 0.1) kcal/mol	243 nM	43000 M⁻¹ s⁻¹					
CC(C)C[C@H](NC(=O)[C@H](CC(=O)O)NC(=O)[C@H](CC1CCCCC1)NC(=O)[C@H](CCC(N)=O)NC(=O)/C=C/c1cccnc1)C(=O)N[C@@H](Cc1ccccc1)C(=O)O [P16] ({Acryloyl(3-(3-pyridyl),E)}-Q[Cha]DLF-OH)	-9.3 (± 0.2) kcal/mol	156 nM	46000 M⁻¹ s⁻¹					
CC(=O)N(C)[C@@H](CCC(N)=O)C(=O)N[C@@H](CC1CCCCC1)C(=O)N[C@@H](CC(=O)O)C(=O)N[C@@H](CC(C)C)C(=O)N[C@@H](Cc1ccccc1)C(=O)O [P2] (Ac-[NMeQ][Cha]DLF-OH)	-7.7 (± 0.2) kcal/mol	> 1000 nM	21000 M⁻¹ s⁻¹					
CC(=O)N[C@@H](CCC(N)=O)C(=O)N[C@@H](CC1CCCCC1)C(=O)N[C@@H](CC(=O)O)C(=O)N[C@@H](CC(C)C)C(=O)NCC(=O)N[C@@H](Cc1ccccc1)C(=O)O [P29] (Ac-Q[Cha]DLGF-OH)	-8.9 (± 0.1) kcal/mol	313 nM	32000 M⁻¹ s⁻¹					
CC(=O)N[C@@H](CCC(N)=O)C(=O)N[C@@H](CC1CCCCC1)C(=O)N[C@@H](CC(=O)O)C(=O)N[C@@H](CC(C)C)C(=O)N1CCC[C@H]1C(=O)N[C@@H](CC(C)C)C(=O)O [P32] (Ac-Q[Cha]DLPL-OH)	-9.2 (± 0.2) kcal/mol	182 nM	57000 M⁻¹ s⁻¹	4 fold				
CC(C)C[C@H](NC(=O)[C@H](CC(=O)O)NC(=O)[C@H](CC1CCCCC1)NC(=O)[C@H](CCC(N)=O)NC(=O)/C=C/c1ccc2ccccc2c1)C(=O)N[C@@H](Cc1ccccc1)C(=O)O [P20] (X1-Q[Cha]DLF-OH)		89 nM	65000 M⁻¹ s⁻¹					
CC(=O)N[C@@H](CCC(N)=O)C(=O)N[C@@H](CC1CCCCC1)C(=O)N[C@@H](CC(=O)O)C(=O)N[C@@H](CC(C)C)C(=O)N1[C@H](C(=O)N[C@@H](Cc2ccccc2)C(=O)O)C[C@@H]2CCCC[C@@H]21 [P48] (Ac-Q[Cha]DL[Oic]F-OH)		120 nM			-9.5 (± 0.3) kcal mol^-1	55000 M⁻¹ s⁻¹		
CC(=O)N[C@@H](CCC(N)=O)C(=O)N[C@@H](CC1CCCCC1)C(=O)N(C)[C@@H](CC(=O)O)C(=O)N[C@@H](CC(C)C)C(=O)N1CCC[C@H]1C(=O)N[C@@H](CC(C)C)C(=O)O [P42] (Ac-Q[Cha][NMeD]LPL-OH)		263 nM			-9.0 (± 0.2) kcal mol^-1	100000 M⁻¹ s⁻¹		
CC(=O)N[C@@H](CCC(N)=O)C(=O)N[C@@H](CC1CCCCC1)C(=O)N[C@@H](CC(=O)O)C(=O)N[C@@H](CC(C)C)C(=O)N[C@H]1CCCC[C@@H]1C(=O)N[C@@H](CC(C)C)C(=O)O [P31] (Ac-Q[Cha]DL[ACHC(1S,2S)]L-OH)	-7.4 (± 0.2) kcal/mol	4070 nM	7400 M⁻¹ s⁻¹					
CC(=O)N[C@@H](CCCNC(=N)N)C(=O)N[C@@H](CCC(N)=O)C(=O)N[C@@H](CC1CCCCC1)C(=O)N[C@@H](CC(=O)O)C(=O)N[C@@H](CC(C)C)C(=O)N[C@@H](Cc1ccccc1)C(=O)O [P12] (Ac-RQ[Cha]DLF-OH)	-8.60 (± 0.08) kcal/mol	498 nM	37000 M⁻¹ s⁻¹				2.5 fold	
CC(=O)N[C@@H](CCC(N)=O)C(=O)N[C@@H](CC1CCCCC1)C(=O)N[C@@H](CC(=O)O)C(=O)N(C)[C@@H](CC(C)C)C(=O)N[C@@H](Cc1ccccc1)C(=O)O [P6] (Ac-Q[Cha]D[NMeL]F-OH)	-5.2 (± 0.2) kcal/mol	> 1000 nM						
CC(=O)N[C@@H](CCC(N)=O)C(=O)N[C@@H](CC1CCCCC1)C(=O)N(C)[C@@H](CC(=O)O)C(=O)N[C@@H](CC(C)C)C(=O)N1CCC[C@H]1C(=O)N[C@@H](Cc1ccccc1)C(=O)O [P45] (Ac-Q[Cha][NMeD]LPF-OH)		81 nM			-9.7 (± 0.2) kcal mol^-1	60000 M⁻¹ s⁻¹		
CC(=O)N[C@@H](CCC(N)=O)C(=O)N[C@@H](CC1CCCCC1)C(=O)N(C)[C@@H](CC(=O)O)C(=O)N[C@@H](CC(C)C)C(=O)N[C@@H](Cc1ccccc1)C(=O)O [P4] (Ac-Q[Cha][NMeD]LF-OH)	-9.5 (± 0.1) kcal/mol	114 nM	210000 M⁻¹ s⁻¹				2.5 fold	5 fold
CC(=O)N[C@@H](CCC(N)=O)C(=O)N[C@@H](CC1CCCCC1)C(=O)N[C@H](C(=O)N[C@@H](CC(C)C)C(=O)N[C@@H](Cc1ccccc1)C(=O)O)[C@@H](C)O [Asp to Thr substitution] (Ac-Q[Cha]TLF-OH)	-9.2 (+/- 0.1) kcal/mol	180 nM						
CC(=O)N[C@@H](CCC(N)=O)C(=O)N[C@@H](CC1CCCCC1)C(=O)N[C@@H](CC(=O)O)C(=O)N[C@@H](CC(C)C)C(=O)N(C)CC(=O)N[C@@H](CC(C)C)C(=O)O [P30] (Ac-Q[Cha]DL[Sar]L-OH)	-8.5 (± 0.2) kcal/mol	583 nM	40000 M⁻¹ s⁻¹					
CC(C)C[C@H](NC(=O)[C@H](CC(=O)O)N(C)C(=O)[C@H](CC1CCCCC1)NC(=O)[C@H](CCC(N)=O)NC(=O)/C=C/c1cccnc1)C(=O)N1CCC[C@H]1C(=O)N[C@@H](Cc1ccccc1)C(=O)O [P46] ({Acryloyl(3-(3-pyridyl),E)}-Q[Cha][NMeD]LPF-OH)		36 nM			-10.2 (± 0.1) kcal mol^-1	140000 M⁻¹ s⁻¹		
CC(C)C[C@H](NC(=O)[C@H](CC(=O)O)NC(=O)[C@H](CC1CCCCC1)NC(=O)[C@H](CCC(N)=O)NC(=O)CNC(N(C)C)=[N+](C)C)C(=O)N[C@@H](Cc1ccccc1)C(=O)[O-] [P15] (X3-Q[Cha]DL-X4)	-8.7 (± 0.1) kcal/mol	353 nM	34000 M⁻¹ s⁻¹					
CC(=O)N[C@@H](CCC(N)=O)C(=O)N(C)[C@@H](CC1CCCCC1)C(=O)N[C@@H](CC(=O)O)C(=O)N[C@@H](CC(C)C)C(=O)N[C@@H](Cc1ccccc1)C(=O)O [P3] (Ac-Q[NMeCha]DLF-OH)	-6.0 (± 0.1) kcal/mol	> 1000 nM						
CCN(C(=O)[C@H](CC1CCCCC1)NC(=O)[C@H](CCC(N)=O)NC(C)=O)[C@@H](CC(=O)O)C(=O)N[C@@H](CC(C)C)C(=O)N[C@@H](Cc1ccccc1)C(=O)O [P5] (Ac-Q[Cha][NEtAsp]LF-OH)	-8.57 (± 0.07) kcal/mol	523 nM	28800 M⁻¹ s⁻¹					
CC(=O)N[C@@H](CCC(N)=O)C(=O)N[C@@H](CC1CCCCC1)C(=O)N[C@@H](CC(=O)O)C(=O)N[C@@H](CC(C)C)C(=O)NCC(=O)N[C@@H](CC(C)C)C(=O)O [P27] (Ac-Q[Cha]DLGL-OH)	-8.4 (± 0.1) kcal/mol	682 nM	26000 M⁻¹ s⁻¹					
CC(C)C[C@H](NC(=O)[C@@H]1CCCN1C(=O)[C@H](CC(C)C)NC(=O)[C@H](CC(=O)O)NC(=O)[C@H](CC1CCCCC1)NC(=O)[C@H](CCC(N)=O)NC(=O)/C=C/c1ccccc1)C(=O)O [P43] (X6-Q[Cha]DLPL-OH)		132 nM				60000 M⁻¹ s⁻¹		
CC(C)C[C@H](NC(=O)[C@H](CC(=O)O)NC(=O)[C@H](CC1CCCCC1)NC(=O)[C@H](CCC(N)=O)NC(=O)CCc1ccccc1)C(=O)N[C@@H](Cc1ccccc1)C(=O)O [P19] (Hydrocinnamoyl-Q[Cha]DLF-OH)		123 nM	55000 M⁻¹ s⁻¹					
